Tests used:
Format in all cases: in vivo, rat
[1] = system: Wistar albino rats, ischemia-reperfusion; experiment: Total thiol groups (SH) in whole blood after ischemia-reperfusion; settings: 10, 50, 100 and 500 μM, 40 minutes before reperfusion; FIG. 4
Description: (§1) In another dosage experiment, rats were randomly divided into five groups. The first group was a group of operated rats that underwent ischemia followed by an hour-long reperfusion without being treated with ABA (operated untreated control). The other four groups included operated rats that underwent ischemia followed by an hour-long reperfusion with an intravenous ABA treatment 40 minutes before reperfusion at a final concentration of either 10 μM, 50 μM, 100 μM, or 500 μM of ABA. Upon completion of the one-hour reperfusion, the rats were anesthetized with intraperitoneal injection of ketamine (40 mg/kg) and diazepam (5 mg/kg) and evaluated.
Following the anesthesia, an abdominal opening technique was performed by a midline laparotomy incision. See, FIGS. 1A-F. After repositioning the intestines, the aorta came into sight and was carefully isolated. […] Right after the one-hour reperfusion treatment period, peripheral blood samples were collected and evaluated.
(§2) Malondialdehyde (MDA) levels were determined in anti-coagulated whole blood using a colorimetric assay as described elsewhere (Ohakawa et al., Anal. Biochem., 95:351-8 (1979)). Reduced glutathione (GSH) levels, as opposed to oxidized GSH, were measured in anti-coagulated whole blood using a colorimetric assay as described elsewhere (Sedlak and Lindsay, Anal. Biochem., 25:192-205 (1968)). […]

skeletal muscle = experiment: Histological analysis of skeletal muscle (m. tensor fasciae latae) after ischemia-reperfusion; settings: 100 μM i.v. at 20th minute of 1 h ischemia, 1 h reperfusion; versus ischemic reperfused operated controls; FIG. 7C
Description: Wistar albino rats (250-280 g) were sham operated (control without ischemia-reperfusion treatment), subjected to ischemia followed by reperfusion (ischemia-reperfusion control), or subjected to ischemia followed by reperfusion with ABA being injected intravenously at a final concentration of 100 μM at the 20th minute of the one hour long ischemic period, which was followed by a one-hour reperfusion. After the one-hour reperfusion periods, tissue samples were obtained from the hind limb (m. tensor fasciae latae) of the rats and fixed in 10% buffered formaldehyde prior to being processed in a paraffin-embedded block. Four-micrometer-thick sections were cut and stained with hematoxylin and eosin.

[2] = system: Wistar albino rats, ischemia-reperfusion; experiment: Inhibition of oxidative stress during the ischemia-reperfusion process, stress markers taken together
Description: as §1, with “Rats were” for “In another dosage experiment, rats were”, “treatment 20” for “treatment 40”
(§3) In another dosage experiment, rats were randomly divided into five groups. […] Upon completion of the one-hour reperfusion, the rats were anesthetized with intraperitoneal injection of ketamine (40 mg/kg) and diazepam (5 mg/kg) and evaluated.
(§4) Following the anesthesia, an abdominal opening technique was performed by a midline laparotomy incision. […] Right after the one-hour reperfusion treatment period, peripheral blood samples were collected and evaluated.
Malondialdehyde (MDA) levels were determined in anti-coagulated whole blood using a colorimetric assay as described elsewhere (Ohakawa et al., Anal. Biochem., 95:351-8 (1979)). […]

SOD mRNA = SOD mRNA expression in renal tissue, semi-quantitative RT-PCR; settings: increasing amount of ABA (10-500 μM) injected 40 minutes before reperfusion, FIG. 5
Description: as §1
(§5) Following the anesthesia, an abdominal opening technique was performed by a midline laparotomy incision. See, FIGS. 1A-F. After repositioning the intestines, the aorta came into sight and was carefully isolated. After the isolation process, the aorta was occluded for one hour (ischemic period). The clamp was released at the end of the ischemic period to start the reperfusion for one hour. Right after the one-hour reperfusion treatment period, peripheral blood samples were collected and evaluated.
(§6) Total RNA was extracted from the renal tissue samples with TRI reagent (Sigma-Aldrich) according to the manufacturer's instructions. […]

PPAR-γ mRNA = PPAR-γ mRNA expression in renal tissue, semi-quantitative RT-PCR; settings: ABA 40 minutes before reperfusion, FIG. 6
Description: as §1, §5, §6

[3] = system: Wistar albino rats, ischemia-reperfusion; experiment: Reduced glutathione (GSH) levels in whole blood after ischemia-reperfusion
Description: (§7) The rats were divided randomly into four groups. The first group was a group of operated rats that underwent ischemia followed by an hour-long reperfusion without being treated with ABA (operated untreated control). The other three groups included operated rats that underwent ischemia followed by an hour-long reperfusion with an ABA treatment (intravenously; final concentration of 100 μM) either 20 minutes, 40 minutes, or 60 minutes before reperfusion. Upon completion of the one-hour reperfusion, the rats were anesthetized with intraperitoneal injection of ketamine (40 mg/kg) and diazepam (5 mg/kg) and evaluated.
(§8) Rats were randomly divided into five groups. The first group was a group of operated rats that underwent ischemia followed by an hour-long reperfusion without being treated with ABA (operated untreated control). […] Upon completion of the one-hour reperfusion, the rats were anesthetized with intraperitoneal injection of ketamine (40 mg/kg) and diazepam (5 mg/kg) and evaluated.
as §3, §4
as §2, with “(1968)). Superoxide dismutase (SOD) enzyme activity was measured in washed red blood cells using a colorimetric assay as described elsewhere (Misra and Fridovich, J. Biol. Chem., 247:3170-3175 (1972)).” for “(1968)).”

[4] = system: Wistar albino rats, ischemia-reperfusion; experiment: Malondialdehyde (MDA) levels in whole blood after ischemia-reperfusion (infrarenal aorta occlusion)
Description: as §7, §8, §3, §4
as §2, with “(1968)). Superoxide dismutase (SOD) enzyme activity was measured in washed red blood cells using a colorimetric assay as described elsewhere (Misra and Fridovich, J. Biol. Chem., 247:3170-3175 (1972)).” for “(1968)).”

[5] = system: Superoxide dismutase (SOD); experiment: Superoxide dismutase (SOD) enzyme activity in washed red blood cells after ischemia-reperfusion
Description: as §7, §8, §3, §4
as §2, with “(1968)). Superoxide dismutase (SOD) enzyme activity was measured in washed red blood cells using a colorimetric assay as described elsewhere (Misra and Fridovich, J. Biol. Chem., 247:3170-3175 (1972)).” for “(1968)).”

CC1=CC(=O)CC(C)(C)[C@@]1(O)/C=C/C(C)=C\C(=O)O [ABA, (2Z,4E)-5-[(1S)-1-hydroxy-2,6,6-trimethyl-4-oxocyclohex-2-en-1-yl]-3-methylpenta-2,4-dienoic acid]
levels of SH (total thiol groups) [1]: increase in the levels of SH | extracellular oedema (fiber separation) (skeletal muscle): minimal extracellular oedema | intercellular vacuolization (skeletal muscle): near complete absence of intercellular vacuolization | tissue and cell architecture (skeletal muscle): noticeable helped to preserve of the normal tissue and cell architecture | concentration as low as which ABA inhibits oxidative stress ([2]; 20 minutes before reperfusion): 10 µM | levels as low as which ABA inhibits oxidative stress ([2]; 40 minutes before reperfusion): 10 to 50 µM | SOD mRNA expression (SOD mRNA): increased levels of SOD mRNA expression | expression of PPAR-γ mRNA (PPAR-γ mRNA): increased expression of PPAR-γ mRNA | reduced GSH levels ([3]; 100 μM final concentration, administered 40 or 60 minutes prior to reperfusion, FIG. 2): increases in reduced GSH levels | reduced GSH levels ([3]; 50, 100 and 500 μM, 20 minutes before reperfusion, FIG. 3): decrease in the levels of reduced GSH levels | reduced GSH levels ([3]; 50, 100 and 500 μM, 40 minutes before reperfusion, FIG. 4): increase in the levels of reduced GSH levels | level of MDA ([4]; 100 μM final concentration, superior mesenteric vein, 0, 20, 40 and 60 minutes before reperfusion, blood after 1 h ischemia and 1 h reperfusion, FIG. 2): efficiently diminished the level of MDA at all time-points tested | level of MDA ([4]; 10, 50, 100 and 500 μM final concentration, 20 minutes before reperfusion, FIG. 3): efficiently diminished the level of MDA | level of MDA ([4]; 100 and 500 μM final concentration, 40 minutes before reperfusion, FIG. 4): efficiently diminished the level of MDA | SOD activity ([5]; 100 μM final concentration, all time-points tested (0, 20, 40, 60 minutes before reperfusion), FIG. 2): increases in SOD activity at all time-points tested | SOD activity ([5]; 10, 100 and 500 μM, 40 minutes before reperfusion, FIG. 4): increase in SOD activity | SOD activity ([5]; 100 and 500 μM, 20 minutes before reperfusion, FIG. 3): increase in SOD activity

Source: patent US10610501B2, “Methods and materials for reducing ischemia-reperfusion injury” (The University of Pécs (Pécsi Tudományegyetem), priority 2014, dated 2020)
